Consider three compounds from paper PMC6364495, “Peptide–siRNA Supramolecular Particles for Neural Cell Transfection” (Advanced Science, 2018).

No end group written: not given here.

The subject of series [1] is primary cortical embryonic neurons. In words: Internalization route with endocytosis inhibitors, neurons. Type of series: cell-based, mouse. The note with it: 300 μM amiloride, 30 minutes preincubation before P4 + siRNA-A488, flow cytometry. The method, then:
1-4 days post-transfection cells were washed carefully three times with 1x PBS. Each well was incubated with 200 µL […]
resuspended in 600 µL of media to neutralize the trypsin and were centrifuged for 15 min at […]. Supernatant was removed, and the pellet was re-suspended in approximately 40 μL of media before Flow Cytometry (BD LSRFortessa) was performed. DAPI (Sigma, 5 µg/mL) was added 1-3 min before measurements were taken to determine the absolute number of dead cells (excitation wavelength of 405 nm). Cell populations were gated based on cell size (FSC), granularity of the cytoplasm (SSC), multiple cells (FSC-W), UV fluorescence (DAPI filter). Percentage of positive cells was calculated from alive cells (DAPI negative). All the samples were measured in triplicates. Results were analyzed using FlowJo software.
After 15 div neural cells were treated with either 5 μg/mL chlorpromazine hydrochloride, 1μg/mL fillipin III from Streptomyces filipinensis, 300 μM amiloride hydrochloride or a combination of them in fresh serum-free medium for 30 minutes before incubated with the peptide (52 μM) + siRNA-A488 (100 nM) for 15h. Samples were analyzed using flow cytometry as described in the previous section.
Western blot/ immunocytochemistry […]

Series [2] in a line: Water solubility of peptide. Type of series: physicochemical.
Series [3] relates to primary cortical embryonic neurons. It counts as cell-based. The note with it: 24 h, 104 µM. As for the experimental part: (§1) Dulbecco’s Modified Eagle Medium (DMEM, Biological Industries), 10% normal horse serum (NHS, GIBCO), 1% penicillin-streptomycin (Pen-Strep, Biological Industries) and 2mM L-glutamine (Biological Industries). After centrifugation and re-suspension, cells were plated and grown to confluence at 37°C, 5% CO 2 (approximately 25-30 days in vitro (div)).
(§2) All the experiments were performed using glial cells from the first passage (Ps1). Passage 1 (Ps1) cells were cultured at a density of 2x10^5 cells/cm2 for 15 days in vitro (div) in DMEM, 1% Pen-Strep and 2mM L-glutamine on non-coated culture plastic (for Western blotting, flow cytometry) or glass (for immunocytochemistry). The cell composition and biochemical characterization of control and reference glial conditions have been described previously2.
(§3) Neurons were obtained from embryonic brains, as described3. Briefly, a time pregnant mouse was sacrificed by cervical dislocation and the embryos were extracted at embryonic day 16 (E16). […]
(§4) resuspended in 600 µL of media to neutralize the trypsin and were centrifuged for 15 min at 1.2 rpm. […] Cell populations were gated based on cell size (FSC), granularity of the cytoplasm (SSC), multiple cells (FSC-W), UV fluorescence (DAPI filter). Percentage of positive cells was calculated from alive cells (DAPI negative). All the samples were measured in triplicates. Results were analyzed using FlowJo software. […]

The subject of series [4] is primary cortical astroglial cells. It counts as cell-based. The following applies: 24 h, 104 µM. As for the experimental part: as §1, §2, §3, §4
In a further series the target is T1, Proteinase K (Parengyodontium album, UniProt P06873).
T1 construct: purchased Sigma-Aldrich
T1 sequence (P06873 106-384): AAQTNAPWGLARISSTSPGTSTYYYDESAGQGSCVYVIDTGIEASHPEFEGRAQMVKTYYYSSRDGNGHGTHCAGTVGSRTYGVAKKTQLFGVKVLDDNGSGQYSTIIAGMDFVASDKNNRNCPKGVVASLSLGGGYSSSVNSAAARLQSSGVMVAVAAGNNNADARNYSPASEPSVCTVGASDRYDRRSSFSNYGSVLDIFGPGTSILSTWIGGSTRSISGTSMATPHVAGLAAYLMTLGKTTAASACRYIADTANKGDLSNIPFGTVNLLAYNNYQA
Briefly: Proteinase K digestion test. The following applies: 50 µM peptide, 0.2 µM siRNA, 25 mM HEPES pH 7.4, 24h, 37C, gel. Type of series: in vitro ADME, Tritirachium album. The method, then: (§5) (Inhepar®, 5000 U/mL equivalent to) and Milli -Q® water to a final concentration of 0.01 mg/mL (1 U/mL) in a final volume of 10 μL. Samples were incubated at room temperature for 2h. After incubation, samples were run in a native 6% polyacrylamide electrophoresis gel as described in the section above.
(§6) A solution of 40 µM peptide and 0.2 µM DNA dissolved in 10X DNAse I buffer (Invitrogen) was mixed with DNAse I (Invitrogen) for a final enzyme concentration of 0.003 U/µL. The solution was incubated at 37 C and at each time point, 12 µL were mixed with 2.7 µL of 5X TBE buffer in ice to quench the enzyme. Then an aliquot of 4 M NaCl was added to every time point sample to a final concentration of […] after incubation for 3 days at 4°C the samples were ran in an electrophoresis gel.
(§7) Proteinase K Digestion Test
(§8) A previously prepared solution of 50 µM peptide and 0.2 µM siRNA dissolved in buffer 25 mM HEPES pH 7.4 were incubated during 24h at 37C in presence of Proteinase K from Tritirachium album (Sigma-Aldrich). After this time an aliquot of it was ran in an electrophoresis gel as mentioned above.
(§9) Salt stability of P4-siRNA particles
(§10) Sample solutions of 70 µM P4 peptide and 0.2 µM of siRNA in 25 mM HEPES pH 7.4 were incubated with different concentrations of NaCl (0-300 mM) for 24h at room temperature.
(§11) The samples were run in a native 6% polyacrylamide electrophoresis gel prepared manually. […]

The target in a further series is T2, DNAse I (Bos taurus, UniProt P00639).
T2 construct: purchased Invitrogen
T2 sequence (P00639 23-282): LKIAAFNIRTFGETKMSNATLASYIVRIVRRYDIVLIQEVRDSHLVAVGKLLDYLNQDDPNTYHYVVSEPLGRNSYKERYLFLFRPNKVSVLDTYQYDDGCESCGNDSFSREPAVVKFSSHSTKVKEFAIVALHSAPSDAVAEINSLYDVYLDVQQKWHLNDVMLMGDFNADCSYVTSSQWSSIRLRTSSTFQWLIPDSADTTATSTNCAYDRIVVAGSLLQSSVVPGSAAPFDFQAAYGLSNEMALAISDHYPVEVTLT
Briefly: Salt stability and DNAse I digestion of P4-DNA particles. It counts as in vitro ADME. The note with it: versus siRNA particles, DNAse I 0.003 U/µL, 37 C, gel. As for the experimental part:
as §5, §6, §7, §8, §9, §10, §11

With `N=C(N)NC(=O)c1nc(Cl)c(N)nc1N` [Amiloride, amiloride], the “reduction of uptake of siRNA, neuronal” value in series [1] is on record as 80% ± 9.1.
With “MPVGSLQELAVQKGWRLPEYTVAQESGPPHKREFTITVRVE [P1]”, the water solubility result in series [2] is “poor water solubility”.
As for “SIRKLEYEIEELRLRIGGGTFVETGSGTSKQVAKRVAAEKLLTKFKT [P4]”, the “cell survival, neuronal cells” value in series [3] was 89% ± 7. In series [4], the “cell survival, astroglial cells” value was 88% ± 5.5. On Proteinase K, the “release of siRNA after proteinase K digestion” value is “can be released after protease digestion”. At DNAse I, the “salt and enzymatic stability of P4 complexed with dsDNA” value is “lower salt and enzymatic stability”.
